Reference: patent US9938281B2 (Merck Sharp & Dohme Corp., priority 2012, dated 2018)

Tests used:
PI3K-delta = biological target: T1, PI3K-delta (Homo sapiens, UniProt O00329); test: HTRF PI3K biochemical assay, delta isoform; settings: form screened (neutral or TFA salt) given, read-out: PI3Kdelta IC50
T1 construct: purchased Upstate; Millipore 14-604

PI3K-alpha = biological target: T2, PI3K-alpha (Homo sapiens, UniProt P42336); test: HTRF PI3K biochemical assay, alpha isoform; settings: ratio PI3K-alpha IC50 value / PI3K-delta IC50 value
T2 construct: purchased Upstate; Millipore 14-602
T2 sequence (P42336 whole entry, canonical isoform): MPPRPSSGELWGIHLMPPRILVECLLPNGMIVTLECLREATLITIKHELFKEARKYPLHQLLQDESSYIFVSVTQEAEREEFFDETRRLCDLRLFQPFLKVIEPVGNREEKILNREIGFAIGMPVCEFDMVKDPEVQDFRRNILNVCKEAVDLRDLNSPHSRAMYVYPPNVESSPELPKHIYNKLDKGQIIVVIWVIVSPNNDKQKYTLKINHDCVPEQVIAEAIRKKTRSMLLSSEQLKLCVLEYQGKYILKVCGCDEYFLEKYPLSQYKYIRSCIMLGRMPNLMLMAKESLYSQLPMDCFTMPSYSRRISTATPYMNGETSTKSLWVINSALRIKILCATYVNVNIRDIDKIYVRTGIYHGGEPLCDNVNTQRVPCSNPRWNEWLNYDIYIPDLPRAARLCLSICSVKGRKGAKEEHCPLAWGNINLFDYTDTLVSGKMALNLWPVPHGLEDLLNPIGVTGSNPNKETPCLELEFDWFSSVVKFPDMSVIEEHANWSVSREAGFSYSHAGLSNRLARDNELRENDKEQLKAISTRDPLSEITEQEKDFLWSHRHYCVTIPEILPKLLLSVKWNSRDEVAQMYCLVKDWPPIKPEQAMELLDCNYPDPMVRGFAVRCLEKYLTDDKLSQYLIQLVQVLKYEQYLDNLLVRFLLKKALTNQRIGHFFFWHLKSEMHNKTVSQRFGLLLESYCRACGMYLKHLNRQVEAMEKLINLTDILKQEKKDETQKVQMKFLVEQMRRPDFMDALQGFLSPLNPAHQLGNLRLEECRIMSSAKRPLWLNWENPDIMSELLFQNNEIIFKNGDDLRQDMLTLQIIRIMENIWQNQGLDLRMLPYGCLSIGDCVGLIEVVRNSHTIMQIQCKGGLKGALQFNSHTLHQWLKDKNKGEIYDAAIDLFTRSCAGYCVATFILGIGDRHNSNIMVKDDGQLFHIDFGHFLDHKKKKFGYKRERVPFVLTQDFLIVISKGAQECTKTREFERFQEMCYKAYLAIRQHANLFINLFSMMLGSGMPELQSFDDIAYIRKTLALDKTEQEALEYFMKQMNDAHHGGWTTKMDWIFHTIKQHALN
T2 sequence (P27986 whole entry partner, canonical isoform): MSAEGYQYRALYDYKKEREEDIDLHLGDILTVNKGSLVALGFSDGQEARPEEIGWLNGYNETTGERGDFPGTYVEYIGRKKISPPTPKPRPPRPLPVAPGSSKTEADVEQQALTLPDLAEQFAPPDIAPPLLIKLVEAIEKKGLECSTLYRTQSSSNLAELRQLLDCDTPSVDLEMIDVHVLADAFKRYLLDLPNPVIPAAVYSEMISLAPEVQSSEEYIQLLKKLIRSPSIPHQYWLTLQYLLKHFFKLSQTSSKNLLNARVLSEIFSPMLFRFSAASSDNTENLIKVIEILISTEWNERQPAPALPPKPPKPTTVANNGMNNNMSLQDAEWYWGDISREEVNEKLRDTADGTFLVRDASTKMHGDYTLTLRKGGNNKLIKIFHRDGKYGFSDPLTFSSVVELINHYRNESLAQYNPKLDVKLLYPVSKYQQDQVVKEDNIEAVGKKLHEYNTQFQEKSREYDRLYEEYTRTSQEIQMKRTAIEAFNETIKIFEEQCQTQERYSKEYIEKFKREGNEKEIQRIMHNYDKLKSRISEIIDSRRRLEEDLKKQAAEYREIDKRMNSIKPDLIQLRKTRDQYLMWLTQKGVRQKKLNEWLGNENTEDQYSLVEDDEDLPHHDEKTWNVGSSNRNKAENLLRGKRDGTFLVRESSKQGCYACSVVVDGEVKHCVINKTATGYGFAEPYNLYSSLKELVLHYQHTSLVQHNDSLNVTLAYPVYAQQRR

T1 sequence (O00329 whole entry, canonical isoform): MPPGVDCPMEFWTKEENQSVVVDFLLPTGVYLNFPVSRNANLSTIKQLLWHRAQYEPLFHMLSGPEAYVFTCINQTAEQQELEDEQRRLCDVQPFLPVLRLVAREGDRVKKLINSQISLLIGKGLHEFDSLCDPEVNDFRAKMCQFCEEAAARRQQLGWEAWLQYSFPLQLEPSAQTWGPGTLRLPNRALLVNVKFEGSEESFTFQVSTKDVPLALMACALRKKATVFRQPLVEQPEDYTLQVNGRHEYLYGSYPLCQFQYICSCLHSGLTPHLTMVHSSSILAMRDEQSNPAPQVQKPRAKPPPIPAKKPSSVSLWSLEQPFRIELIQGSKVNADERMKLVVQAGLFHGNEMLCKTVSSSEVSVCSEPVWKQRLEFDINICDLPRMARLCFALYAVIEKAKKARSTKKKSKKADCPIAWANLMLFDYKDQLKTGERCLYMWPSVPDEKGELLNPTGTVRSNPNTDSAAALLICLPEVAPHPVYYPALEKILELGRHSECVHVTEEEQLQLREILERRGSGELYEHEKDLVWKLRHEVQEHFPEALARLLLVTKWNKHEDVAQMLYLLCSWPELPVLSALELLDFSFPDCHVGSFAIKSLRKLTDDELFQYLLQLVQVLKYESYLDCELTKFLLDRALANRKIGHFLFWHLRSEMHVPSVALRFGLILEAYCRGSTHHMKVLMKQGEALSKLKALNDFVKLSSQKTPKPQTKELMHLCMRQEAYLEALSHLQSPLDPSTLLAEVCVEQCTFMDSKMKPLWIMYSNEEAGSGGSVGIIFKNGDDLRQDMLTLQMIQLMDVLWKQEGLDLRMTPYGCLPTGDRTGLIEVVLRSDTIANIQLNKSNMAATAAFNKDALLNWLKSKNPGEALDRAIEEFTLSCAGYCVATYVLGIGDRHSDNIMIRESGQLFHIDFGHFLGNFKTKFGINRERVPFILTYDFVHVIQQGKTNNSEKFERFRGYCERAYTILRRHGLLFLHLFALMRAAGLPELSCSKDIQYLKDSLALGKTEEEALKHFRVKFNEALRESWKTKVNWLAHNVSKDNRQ
T1 sequence (P27986 whole entry partner, canonical isoform): as the sequence (P27986 whole entry partner, canonical isoform) above

Row | Structure (SMILES) | IC50 (PI3K-delta) | Selectivity versus PI3Kalpha (PI3K-alpha)
1 | CCn1c(-c2cnc(C)nc2)nc2c(N[C@H]3CCN(C(=O)C4(C)CCCO4)C3)ncnc21 (mixture of isomers) [Compound 2-68, 9-ethyl-8-(2-methylpyrimidin-5-yl)-N-{(3S)-1-[((S and R)-2-methyltetrahydrofuran-2-yl)carbonyl]pyrrolidin-3-yl}-9H-purin-6-amine] | 26 nM | >10
2 | CCn1ncc(-c2nc3c(N[C@H]4CCN(C(=O)OC(C)(C)C)C4)ncnc3n2CC)c1C [Compound 1-14, tert-butyl (3S)-3-{[9-ethyl-8-(1-ethyl-5-methyl-1H-pyrazol-4-yl)-9H-purin-6-yl]amino}pyrrolidine-1-carboxylate] | 1.1 nM | >10
3 | CCn1c(-c2cnc(C)nc2)nc2c(N[C@H]3CCN(C(=O)c4cnn(C)c4)C3)ncnc21 [Compound 2-73, 9-ethyl-N-{(3S)-1-[(1-methyl-1H-pyrazol-4-yl)carbonyl]pyrrolidin-3-yl}-8-(2-methylpyrimidin-5-yl)-9H-purin-6-amine] | 4.2 nM | >10
4 | CCn1c(-c2cnc(C)nc2)nc2c(N[C@H]3CCN(C(=O)CN(C)C)C3)ncnc21 [Compound 2-31, N-{(3S)-1-[(dimethylamino)acetyl]pyrroli-din-3-yl}-9-ethyl-8-(2-methylpyrimidin-5-yl)-9H-purin-6-amine] | 10 nM | >10
5 | CCn1c(-c2cnc(C(C)(C)C)s2)nc2c(N(C)[C@H]3CCN(C(=O)OC(C)(C)C)C3)ncnc21 [Compound 1-7, (S)-tert-butyl 3-((8-(2-(tert-butyl)thiazol-5-yl)-9-ethyl-9H-purin-6-yl)(methyl)amino)pyrrolidine-1-carboxylate] | 6.7 nM | >10
6 | CCC(=O)N1CC[C@H](Nc2ncnc3c2nc(-c2cncc(N)c2)n3C)C1 [Compound 3-13, 8-(5-aminopyridin-3-yl)-9-methyl-N-[(3S)-1-propanoylpyrrolidin-3-yl]-9H-purin-6-amine] | 2.4 nM | >10
7 | CCn1c(-c2cnc(C)nc2)nc2c(N[C@H]3C[C@H](C(=O)OC)N(C(=O)OC(C)(C)C)C3)ncnc21 [Compound 1-17, 1-tert-butyl 2-methyl (2R,4S)-4-{[9-ethyl-8-(2-methylpyrimidin-5-yl)-9H-purin-6-yl]amino}pyrrolidine-1,2-dicarboxylate] | 8.8 nM | >10
8 | CCn1c(-c2cnc(C)nc2)nc2c(N[C@H]3CCN(C(=O)C4CN(C(C)C)C4)C3)ncnc21 [Compound 2-79, 9-ethyl-N-[(3S)-1-{[1-(1-methylethyl)azetidin-3-yl]carbonyl}pyrrolidin-3-yl]-8-(2-methylpyrimidin-5-yl)-9H-purin-6-amine] | 17 nM | >10
9 | CCn1c(-c2ccc(C(F)(F)F)cc2)nc2c(N[C@H]3CCN(C(=O)C4CC4)C3)ncnc21 [Compound 3-30, N-[(3S)-1-(cyclopropylcarbonyl)pyrrolidin-3-yl]-9-ethyl-8-[4-(trifluoromethyl)phenyl]-9H-purin-6-amine] | 1.2 nM | >10
10 | CCn1c(-c2cncc(Cl)c2)nc2c(N[C@H]3CCN(C(=O)C4CC4)C3)ncnc21 [Compound 3-38, 8-(5-chloropyridin-3-yl)-N-[(3S)-1-(cyclopropylcarbonyl)pyrrolidin-3-yl]-9-ethyl-9H-purin-6-amine] | 1.8 nM | >10
11 | CCn1c(-c2cnc(C)nc2)nc2c(N[C@H]3CCN(C(=O)C4CC4(C)C)C3)ncnc21 (mixture of isomers) [Compound 2-56, N-{(3S)-1-[((R and S)-2,2-dimethylcyclopropyl)carbonyl]pyrrolidin-3-yl}-9-ethyl-8-(2-methylpyrimidin-5-yl)-9H-purin-6-amine] | 1 nM | >10
12 | CCC(=O)N1CC[C@H](Nc2ncnc3c2nc(-c2cnc(C(C)(C)C)s2)n3C)C1 [Compound 2-14, (S)-1-(3-((8-(2-(tert-butyl)thiazol-5-yl)-9-methyl-9H-purin-6-yl)amino)pyrrolidin-1-yl)propan-1-one] | 1.2 nM | >10
13 | CCC(=O)N1CC[C@H](Nc2ncnc3c2nc(-c2cnc(C)nc2)n3CC)C1 [Compound 2-17, (S)-1-(3-((9-ethyl-8-(2-methylpyrimidin-5-yl)-9H-purin-6-yl)amino)pyrrolidin-1-yl)propan-1-one] | 2.7 nM | >10
14 | CCn1c(-c2cnc(C)nc2)nc2c(NC3CN(C(=O)C4CC4)CC3C(F)(F)F)ncnc21 (racemic) [Compound 3-22, N-[(3R,4S and 3S,4R)-1-(cyclopropylcarbonyl)-4-(trifluoromethyl)pyrrolidin-3-yl]-9-ethyl-8-(2-methylpyrimidin-5-yl)-9H-purin-6-amine] | 2.9 nM | >10
15 | CCn1c(-c2cnc(C)nc2)nc2c(N[C@H]3CCN(C(=O)c4cc(C)on4)C3)ncnc21 [Compound 2-70, 9-ethyl-N-{(3S)-1-[(5-methylisoxazol-3-yl)carbonyl]pyrrolidin-3-yl}-8-(2-methylpyrimidin-5-yl)-9H-purin-6-amine] | 7.4 nM | >10
16 | CCn1ncc(-c2nc3c(N[C@H]4CCCN(C(=O)OC(C)(C)C)C4)ncnc3n2C)c1C [Compound 1-12, (S)-tert-butyl 3-((8-(1-ethyl-5-methyl-1H-pyrazol-4-yl)-9-methyl-9H-purin-6-yl)amino)piperidine-1-carboxylate] | 19 nM | >10
17 | CCn1c(-c2cnc(C)nc2)nc2c(N[C@H]3CCN(C(=O)C4CCCC4)C3)ncnc21 [Compound 2-23, (S)-cyclopentyl(3-((9-ethyl-8-(2-methylpyrimidin-5-yl)-9H-purin-6-yl)amino)pyrrolidin-1-yl)methanone] | 8 nM | >10
18 | CCn1c(-c2cnc(OC)c(C)c2)nc2c(N(C)[C@H]3CCN(C(=O)OC(C)(C)C)C3)ncnc21 [Compound 1-4, (S)-tert-butyl 3-((9-ethyl-8-(6-methoxy-5-methylpyridin-3-yl)-9H-purin-6-yl)(methyl)amino)pyrrolidine-1-carboxylate] | 1.7 nM | >10
19 | CCC(=O)N1CC[C@H](Nc2ncnc3c2nc(-c2cncc(C(C)(C)O)c2)n3C)C1 [Compound 3-34, 2-[5-(9-methyl-6-{[(3S)-1-propanoylpyrrolidin-3-yl]amino}-9H-purin-8-yl)pyridin-3-yl]propan-2-ol] | 2 nM | >10
20 | CCn1c(-c2cnc(C)nc2)nc2c(N[C@H]3C[C@@H](C(=O)OC)N(C(=O)OC(C)(C)C)C3)ncnc21 [Compound 1-19, 1-tert-butyl 2-methyl (2S,4S)-4-{[9-ethyl-8-(2-methylpyrimidin-5-yl)-9H-purin-6-yl]amino}pyrrolidine-1,2-dicarboxylate] | 69 nM | >10
21 | CCn1c(-c2cnc(C)nc2)nc2c(N[C@H]3CCN(C(=O)C4CCC(=O)N4)C3)ncnc21 (mixture of isomers) [Compound 2-64, (R and S)-5-{[(3S)-3-{[9-ethyl-8-(2-methylpyrimidin-5-yl)-9H-purin-6-yl]amino}pyrrolidin-1-yl]carbonyl}pyrrolidin-2-one] | 6.7 nM | >10

Other lines, results leading:

Row | IC50 (PI3K-delta) | Selectivity versus PI3Kalpha (PI3K-alpha) | Structure (SMILES)
22 | 3 nM | >10 | CCn1c(-c2cnc(C)nc2)nc2c(N[C@H]3C[C@H](C(N)=O)N(C(=O)C4CC4)C3)ncnc21 [Compound 15-5, (4S)-1-(cyclopropylcarbonyl)-4-{[9-ethyl-8-(2-methylpyrimidin-5-yl)-9H-purin-6-yl]amino}-D-prolinamide]
23 | 47 nM | >10 | CCn1c(CC2CC2)nc2c(N[C@H]3CCN(C(=O)C4CC4)C3)ncnc21 [Compound 7-1, N-[(3S)-1-(cyclopropylcarbonyl)pyrrolidin-3-yl]-8-(cyclopropylmethyl)-9-ethyl-9H-purin-6-amine]
24 | 130 nM | >10 | CCn1c(C(C)C)nc2c(N[C@H]3CCN(C(=O)C4CC4)C3)ncnc21 [Compound 7-5, N-[(3S)-1-(cyclopropylcarbonyl)pyrrolidin-3-yl]-9-ethyl-8-(1-methylethyl)-9H-purin-6-amine]
25 | 4.7 nM | >10 | CCc1ccnc(N2CC[C@H](Nc3ncnc4c3nc(-c3cnc(C)nc3)n4CC)C2)c1 [Compound 4-6, 9-ethyl-N-[(3S)-1-(4-ethylpyridin-2-yl)pyrrolidin-3-yl]-8-(2-methylpyrimidin-5-yl)-9H-purin-6-amine]
26 | 62 nM | >10 | CCn1c(C(=O)NC2COC2)nc2c(N[C@H]3CCN(C(=O)C4CC4)C3)ncnc21 [Compound 6-6, 6-{[(3S)-1-(cyclopropylcarbonyl)pyrrolidin-3-yl]amino}-9-ethyl-N-oxetan-3-yl-9H-purine-8-carboxamide]
27 | 3.5 nM | >10 | CCC(C)OC(=O)N1CC[C@H](Nc2ncnc3c2nc(-c2cnc(C)nc2)n3CC)C1 (mixture of isomers) [Compound 13-9, (S and R)-1-methylpropyl (3S)-3-{[9-ethyl-8-(2-methylpyrimidin-5-yl)-9H-purin-6-yl]amino}pyrrolidine-1-carboxylate]
28 | 20 nM | >10 | CCCn1c(-c2cnn(CC)c2C)nc2c(N[C@H]3CCN(C(=O)CC)C3)ncnc21 [Compound 9-1, 8-(1-ethyl-5-methyl-1H-pyrazol-4-yl)-N-[(3S)-1-propanoylpyrrolidin-3-yl]-9-propyl-9H-purin-6-amine]
29 | 85 nM | >10 | CCn1c(C(=O)NCCOC)nc2c(N[C@H]3CCN(C(=O)C4CC4)C3)ncnc21 [Compound 6-2, 6-{[(3S)-1-(cyclopropylcarbonyl)pyrrolidin-3-yl]amino}-9-ethyl-N-(2-methoxyethyl)-9H-purine-8-carboxamide]
